# Test results published in US7022716B2, “Cyclic amine phenyl beta-3 adrenergic receptor agonists” (Wyeth, priority 2000, dated 2006).
# Target: T1, human β3 adrenergic receptor (Homo sapiens, UniProt P13945)
# T1 construct: Full length β3 AR clones (402 amino acids) containing the last 6 amino acids of hβ3-AR are prepared; expressed in transfected cells; host or cells: CHO (Chinese hamster ovary) cells
# Assay: cAMP (SPA) response in CHO cells transfected with human β3 adrenergic receptor
# Type: cell-based
# Parameters: key: fraction of maximal isoproterenol (10^-5 M) response
# Conditions: maximal response relative to maximal response of isoproterenol at 10^-5 M
# Experimental: Binding to the receptors was measured in Chinese Hamster ovary (CHO) cells that were transfected with adrenergic receptors.
# The corresponding primer sequences are described in Mantzoros, C. […] The four fragments are ligated into a pUC 18 plasmid (Gibco-BRL) and sequenced.
# CHO cells were grown in 24-well tissue culture plates in Dulbecco's Modified Eagle Media with 10% fetal bovine serum, MEM non-essential amino acids, Penicillin-Streptompycin and Geneticin. On the day of test procedure, growth medium was replaced with preincubation media (Dulbecco's Modified Eagle, Media) and incubated for 30 minutes at 37° C. […] Test compounds were tested over a concentration range of 10^−9 M to 10^−5 M for β3 cells and 10^−8 to 10^−4 M for β1 and β2 transfected cells. Isoproterenol (10^−5 M) was used as an internal standard for comparison of activity. Cells were incubated at 37° C. on a rocker for 30 min with the β3 cells and 15 min for β1 and β2 cells. Incubation was stopped with the addition of 0.2N HCl and neutralized with 2.5N NaOH. The plates, containing the cells and neutralized media, were stored at −20 degrees celsius until ready to test for cAMP using the SPA test kit (Amersham).
# Data Analysis and Results: Data collected from the SPA test procedure were analyzed as percent of the maximal isoproterenol response at 10^−5 M. Activity curves were plotted using the SAS statistical and graphics software.
# T1 sequence (P13945 whole entry): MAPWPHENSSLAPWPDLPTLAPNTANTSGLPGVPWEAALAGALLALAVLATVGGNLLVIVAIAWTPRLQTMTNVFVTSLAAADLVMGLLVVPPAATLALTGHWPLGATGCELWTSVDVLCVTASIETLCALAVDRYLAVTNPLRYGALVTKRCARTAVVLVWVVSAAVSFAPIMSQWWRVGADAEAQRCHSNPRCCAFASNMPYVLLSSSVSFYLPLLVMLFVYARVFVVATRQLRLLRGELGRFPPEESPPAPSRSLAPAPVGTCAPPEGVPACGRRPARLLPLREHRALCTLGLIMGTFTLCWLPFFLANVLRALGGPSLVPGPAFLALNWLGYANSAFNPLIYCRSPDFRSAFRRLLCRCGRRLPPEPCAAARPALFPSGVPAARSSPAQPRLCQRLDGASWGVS
row,IA(β3),Compound
1,1.04,"O=c1[nH]c2cccc(OC[C@@H](O)CNC3CCN(c4ccc(NS(=O)(=O)c5ccc(-c6ccccn6)s5)cc4)CC3)c2[nH]1 [Example 278, N-{4-[4-({(2S)-2-Hydroxy-3-[(2-oxo-2,3-dihydro-1H-benzimidazol-4-yl)oxy]propyl}-amino)-1-piperidinyl]phenyl}-5-(2-pyridinyl)-2-thiophenesulfonamide]"
2,0.74,"COc1ccc(S(=O)(=O)Nc2ccc(N3CCC(NC[C@H](O)COc4ccc(O)cc4)CC3)cc2)cc1OC [Example 279, N-[4-(4-{[(2S)-2-Hydroxy-3-(4-hydroxyphenoxy)propyl]amino}-1-piperidinyl)phenyl]-3,4-dimethoxybenzenesulfonamide]"
3,1.16,"COc1ccc(S(=O)(=O)Nc2ccc(N3CCC(NCC(O)c4ccc(O)c(NS(C)(=O)=O)c4)CC3)cc2)cc1OC (stereo not shown) [Example 280, N-(4-{4-[(2-Hydroxy-2-{4-hydroxy-3-[(methylsulfonyl)amino]phenyl}ethyl)amino]-1-piperidinyl}phenyl)-3,4-dimethoxybenzenesulfonamide]"
4,0.63,"CC(=O)Nc1ccc(S(=O)(=O)Nc2ccc(N3CCC(NC[C@H](O)COc4cccc5[nH]c6ccccc6c45)CC3)cc2)cc1 [Example 282, N-(4-{[4-(4-{[(2S)-3-(9H-Carbazol-4-yloxy)-2-hydroxypropyl]amino}-1-piperidinyl)-anilino]sulfonyl}phenyl)acetamide]"
5,0.81,"Cc1c(S(=O)(=O)Nc2ccc(N3CCC(NC[C@H](O)COc4cccc5[nH]c(=O)[nH]c45)CC3)cc2)sc2ccc(Cl)cc12 [Example 283, 5-Chloro-N-{4-[4-({(2S)-2-hydroxy-3-[(2-oxo-2,3-dihydro-1H-benzimidazol-4-yl)oxy]propyl}amino)-1-piperidinyl]phenyl}-3-methyl-1-benzothiophene-2-sulfonamide]"
6,0.87,"N#Cc1ccc(S(=O)(=O)Nc2ccc(N3CCC(NC[C@H](O)COc4cccc5[nH]c(=O)[nH]c45)CC3)cc2)cc1 [Example 284, 4-Cyano-N-{4-[4-({(2S)-2-hydroxy-3-[(2-oxo-2,3-dihydro-1H-benzimidazol-4-yl)oxy]propyl}amino)-1-piperidinyl]phenyl}benzenesulfonamide]"
7,0.76,"N#Cc1ccc(S(=O)(=O)N(c2ccc(N3CCC(NC[C@H](O)COc4cccc5[nH]c(=O)[nH]c45)CC3)cc2)S(=O)(=O)c2ccc(C#N)cc2)cc1 [Example 285, 4-Cyano-N-[(4-cyanophenyl)sulfonyl]-N-{4-[4-({(2S)-2-hydroxy-3-[(2-oxo-2,3-dihydro-1H-benzimidazol-4-yl)oxy]propyl}amino)-1-piperidinyl]phenyl}benzenesulfonamide]"
8,0.91,"O=c1[nH]c2cccc(OC[C@@H](O)CNC3CCN(c4ccc(NS(=O)(=O)c5sc(Cl)cc5Br)cc4)CC3)c2[nH]1 [Example 286, 3-Bromo-5-chloro-N-{4-[4-({(2S)-2-hydroxy-3-[(2-oxo-2,3-dihydro-1H-benzimidazol-4-yl)oxy]propyl}amino)-1-piperidinyl]phenyl}-2-thiophenesulfonamide]"
9,0.92,"O=c1[nH]c2cccc(OC[C@@H](O)CNC3CCN(c4ccc(NS(=O)(=O)c5ccc(-c6ccon6)s5)cc4)CC3)c2[nH]1 [Example 287, N-{4-[4-({(2S)-2-Hydroxy-3-[(2-oxo-2,3-dihydro-1H-benzimidazol-4-yl)oxy]propyl}-amino)-1-piperidinyl]phenyl}-5-(3-isoxazolyl)-2-thiophenesulfonamide]"
10,1.24,"CS(=O)(=O)Nc1cc(C(O)CNC2CCN(c3ccc(NS(=O)(=O)c4ccc(-n5nnn(CCCC6CCCC6)c5=O)cc4)cc3)CC2)ccc1O (stereo not shown) [Example 288, 4-[4-(3-Cyclopentyl-propyl)-5-oxo-4,5-dihydro-tetrazol-1-yl]-N-(4-{4-[2-hydroxy-2-(4-hydroxy-3-methanesulfonylamino-phenyl)-ethaylamino]-piperidin-1-yl}-phenyl)-benzenesulfonamide]"
11,0.72,CCCCCCNC(=O)Nc1ccc(S(=O)(=O)Nc2ccc(N3CCC(NC[C@H](O)COc4cccc5[nH]c6ccccc6c45)CC3)cc2)cc1 [Example 290]
12,1.07,"CC(=O)Nc1ccc(S(=O)(=O)Nc2ccc(N3CCC(NC[C@H](O)c4ccc(O)c(NS(C)(=O)=O)c4)CC3)cc2)cc1 [Example 291, N-{4-[(4-{4-[((2R)-2-Hydroxy-2-{4-hydroxy-3-[(methylsulfonyl)amino]-phenyl}ethyl)amino]-1-piperidinyl}anilino)sulfonyl]phenyl}acetamide]"
13,0.75,"COc1ccc(S(=O)(=O)Nc2ccc(N3CCC(NC[C@H](O)COc4cccc5[nH]c6ccccc6c45)CC3)cc2)cc1OC [Example 292, N-[4-(4-{[(2S)-3-(9H-Carbazol-4-yloxy)-2-hydroxypropyl]amino}-1-piperidinyl)phenyl]-3,4-dimethoxybenzenesulfonamide]"
14,0.94,"O=S(=O)(Nc1ccc(N2CCC(NC[C@H](O)COc3ccc(O)cc3)CC2)cc1)c1ccc(-c2ccccn2)s1 [Example 293, N-[4-(4-{[(2S)-2-Hydroxy-3-(4-hydroxyphenoxy)propyl]amino}-1-piperidinyl)phenyl]-5-(2-pyridinyl)-2-thiophenesulfonamide]"
15,1.07,"CS(=O)(=O)Nc1cc(C(O)CNC2CCN(c3ccc(NS(=O)(=O)c4ccc(-c5ccccn5)s4)cc3)CC2)ccc1O (stereo not shown) [Example 294, N-(4-{4-[(2-Hydroxy-2-{4-hydroxy-3-[(methylsulfonyl)amino]phenyl}ethyl)amino]-1-piperidinyl}phenyl)-5-(2-pyridinyl)-2-thiophenesulfonamide]"
16,0.87,"CCCCS(=O)(=O)Nc1ccc(N2CCC(NCC(O)c3ccc(O)c(NS(C)(=O)=O)c3)CC2)cc1 (stereo not shown) [Example 295, N-(4-{4-[(2-Hydroxy-2-{4-hydroxy-3-[(methylsulfonyl)amino]phenyl}ethyl)amino]-1-piperidinyl}phenyl)-1-butanesulfonamide]"
17,0.81,"CCCCS(=O)(=O)Nc1ccc(N2CCC(NC[C@H](O)COc3cccc4[nH]c(=O)[nH]c34)CC2)cc1 [Example 296, N-{4-[4-({(2S)-2-Hydroxy-3-[(2-oxo-2,3-dihydro-1H-benzimidazol-4-yl)oxy]propyl}amino)-1-piperidinyl]phenyl}-1-butanesulfonamide]"
18,1,"CCCCCCCCS(=O)(=O)Nc1ccc(N2CCC(NCC(O)c3ccc(O)c(NS(C)(=O)=O)c3)CC2)cc1 (stereo not shown) [Example 297, N-(4-{4-[(2-Hydroxy-2-{4-hydroxy-3-[(methylsulfonyl)amino]phenyl}ethyl)amino]-1-piperidinyl}phenyl)-1-octanesulfonamide]"
19,0.78,"CCCCCCCCS(=O)(=O)Nc1ccc(N2CCC(NC[C@H](O)COc3cccc4[nH]c(=O)[nH]c34)CC2)cc1 [Example 298, N-{4-[4-({(2S)-2-Hydroxy-3-[(2-oxo-2,3-dihydro-1H-benzimidazol-4-yl)oxy]propyl}amino)-1-piperidinyl]phenyl}-1-octanesulfonamide]"
20,1.1,O=c1[nH]c2cccc(OC[C@@H](O)CNC3CCN(c4ccc(NS(=O)(=O)c5ccc(S(=O)(=O)c6ccc(C(F)(F)F)cn6)s5)cc4)CC3)c2[nH]1 [Example 299]
21,0.78,"O=S(=O)(Nc1ccc(N2CCC(NC[C@H](O)COc3ccc(O)cc3)CC2)cc1)c1ccc(S(=O)(=O)c2ccc(C(F)(F)F)cn2)s1 [Example 300, N-[4-(4-{[(2S)-2-Hydroxy-3-(4-hydroxyphenoxy)propyl]amino}-1-piperidinyl)phenyl]-5-{[5-(trifluoromethyl)-2-pyridinyl]sulfonyl}-2-thiophenesulfonamide]"
22,0.95,"O=C1NC(=O)C(Cc2ccc(S(=O)(=O)Nc3ccc(N4CCC(NC[C@H](O)COc5cccc6[nH]c(=O)[nH]c56)CC4)cc3)cc2)S1 (stereo partly drawn) [Example 301, 4-[(2,4-Dioxo-1,3-thiazolidin-5-yl)methyl]-N-{4-[4-({(2S)-2-hydroxy-3-[(2-oxo-2,3-dihydro-1H-benzimidazol-4-yl)oxy]propyl}amino)-1-piperidinyl]phenyl}-benzenesulfonamide]"
23,0.95,"CS(=O)(=O)Nc1cc(C(O)CNC2CCN(c3ccc(NS(=O)(=O)c4ccc(CC5SC(=O)NC5=O)cc4)cc3)CC2)ccc1O (stereo not shown) [Example 302, 4-[(2,4-Dioxo-1,3-thiazolidin-5-yl)methyl]-N-(4-{4-[(2-hydroxy-2-{4-hydroxy-3-[(methylsulfonyl)amino]phenyl}ethyl)amino]-1-piperidinyl}phenyl)benzenesulfonamide]"

row,Compound,IA(β3)
1,"CCCCOc1ccc(S(=O)(=O)Nc2ccc(N3CCC(NCC(O)c4ccc(O)c(NS(C)(=O)=O)c4)CC3)cc2)cc1 (stereo not shown) [Example 281, 4-Butoxy-N-(4-{4-[2-hydroxy-2-(4-hydroxy-3-methanesulfonylamino-phenyl)-ethylamino]-piperidin-1-yl}-phenyl)-benzenesulfonamide]",1.14
2,"CCCCOc1ccc(S(=O)(=O)Nc2ccc(N3CCC(NCC(O)COc4cccc5[nH]c6ccccc6c45)CC3)cc2)cc1 (stereo not shown) [Example 289, 4-Butoxy-N-(4-{4-[3-(9H-carbazol-4-yloxy)-2-hydroxy-propylamino]-piperidin-1-yl}-phenyl)-benzenesulfonamide]",0.59
